Experimental data reported in US11926642B2, “Compounds and methods for the treatment of COVID-19” (priority 2020, dated 2024).
Read-outs that look alike come from different tables or passages of the source.

Tests used:
[1] = test system: SARS-CoV-2; assay: microbe, parasite or virus in culture; type: cell-based, Washington SARS-CoV-2; conditions: Severe acute respiratory syndrome coronavirus 2, HAE; antiviral time course, preliminary data; read-out: unbound EC90
[2] = test system: SARS-CoV-2; assay: Antiviral activity in HeLa-ACE2 cells, high content imaging with convalescent sera; type: cell-based, USA-WA1/2020 SARS-CoV-2
[3] = target: FIPV-CoV-2 3CLpro (Feline coronavirus, UniProt Q98VG9); assay: 3CLpro FRET protease activity assay, FIPV-CoV-2; type: biochemical
[4] = target: HKU4-CoV 3CLpro (Bat coronavirus HKU4, UniProt P0C6W3); type: biochemical
[5] = target: HKU9-CoV 3CLpro (Bat coronavirus HKU9, UniProt P0C6W5); type: biochemical
[6] = target: IBV-CoV-2 3CLpro (Avian infectious bronchitis virus, UniProt P0C6Y1); assay: 3CLpro FRET protease activity assay, IBV-CoV-2; type: biochemical
[7] = target: Human Cathepsin B (Homo sapiens, UniProt P07858); type: biochemical
[8] = test system: Human Chymotrypsin; type: biochemical
[9] = target: T1, Human Thrombin (Homo sapiens, UniProt P00734); assay: biochemical
T1 construct: Human Thrombin

[10] = target: Human Caspase 2 (Homo sapiens, UniProt P42575); assay: biochemical
[11] = target: Human Cathepsin D (Homo sapiens, UniProt P07339); assay: biochemical
[12] = target: HIV-1 protease (Human immunodeficiency virus type 1 group M subtype B, UniProt P04585); assay: biochemical
[13] = target: SARS-CoV-2 3CLpro (Severe acute respiratory syndrome coronavirus 2, UniProt P0DTD1); assay: Thermal-shift binding assay; conditions: n=8
[14] = test system: SARS-CoV-2 Washington strain 1; type: cell-based
[15] = target: BCRP (Homo sapiens, UniProt Q9UNQ0)
[16] = target: Pgp (Homo sapiens, UniProt P08183)
[17] = target: OATP1B1 (Homo sapiens, UniProt Q9Y6L6)
[18] = target: OATP1B3 (Homo sapiens, UniProt Q9NPD5)
[19] = target: OCT1 (Homo sapiens, UniProt O15245)
[20] = target: OAT1 (Homo sapiens, UniProt Q4U2R8)
[21] = target: OAT3 (Homo sapiens, UniProt Q8TCC7)
[22] = target: MATE1 (Homo sapiens, UniProt Q96FL8)
[23] = target: MHV-CoV 3CLpro (Murine coronavirus, UniProt P0C6X9)
[24] = test system: Vero E6-enACE2 cells; conditions: read-out: CC50 μM GeoMean (95% CI)
[25] = test system: Vero E6-EGFP cells; conditions: read-out: CC50 μM GeoMean (95% CI)
[26] = cytochrome P450 metabolism, HLM
[27] = target: CYP3A4 (Homo sapiens, UniProt P08684)
[28] = test system: CYP3A4/5
[29] = pH 7.4
[30] = in vitro
[31] = at clinically relevant exposures
[32] = continuous IV infusion, 4 days, male rats
[33] = in vivo; conditions: rat, po, 2 mg/kg
[34] = in vitro; conditions: human
[35] = test system: CYP3A; assay: in vitro; conditions: human, microsomes
[36] = test system: P-gp (also known as MDR1 or ABCB1); conditions: not told; cited from earlier work
[37] = target: CYP1A2 (Homo sapiens, UniProt P05177); assay: biochemical
[38] = target: CYP2C8 (Homo sapiens, UniProt P10632); assay: biochemical
[39] = target: CYP2C9 (Homo sapiens, UniProt P11712); assay: biochemical
[40] = target: CYP2C19 (Homo sapiens, UniProt P33261); assay: biochemical
[41] = target: CYP2D6 (Homo sapiens, UniProt P10635); assay: biochemical
[42] = Severe acute respiratory syndrome coronavirus 2, HeLa-ACE2, 24 h

Sequence of CYP2C9 (P11712 whole entry): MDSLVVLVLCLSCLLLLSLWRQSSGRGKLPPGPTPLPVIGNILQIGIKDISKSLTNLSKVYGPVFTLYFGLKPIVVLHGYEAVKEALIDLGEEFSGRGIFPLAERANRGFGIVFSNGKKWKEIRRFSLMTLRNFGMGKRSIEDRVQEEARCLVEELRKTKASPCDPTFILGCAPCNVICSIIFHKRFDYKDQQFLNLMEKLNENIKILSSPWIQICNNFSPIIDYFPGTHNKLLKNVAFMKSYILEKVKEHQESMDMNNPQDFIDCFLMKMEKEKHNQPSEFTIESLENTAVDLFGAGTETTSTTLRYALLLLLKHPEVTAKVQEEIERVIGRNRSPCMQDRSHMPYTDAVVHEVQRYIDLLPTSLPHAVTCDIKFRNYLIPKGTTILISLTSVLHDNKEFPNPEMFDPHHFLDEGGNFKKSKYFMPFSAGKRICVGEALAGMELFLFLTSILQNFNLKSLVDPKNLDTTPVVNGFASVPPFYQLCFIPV
Sequence of FIPV-CoV-2 3CLpro (Q98VG9 2904-3205): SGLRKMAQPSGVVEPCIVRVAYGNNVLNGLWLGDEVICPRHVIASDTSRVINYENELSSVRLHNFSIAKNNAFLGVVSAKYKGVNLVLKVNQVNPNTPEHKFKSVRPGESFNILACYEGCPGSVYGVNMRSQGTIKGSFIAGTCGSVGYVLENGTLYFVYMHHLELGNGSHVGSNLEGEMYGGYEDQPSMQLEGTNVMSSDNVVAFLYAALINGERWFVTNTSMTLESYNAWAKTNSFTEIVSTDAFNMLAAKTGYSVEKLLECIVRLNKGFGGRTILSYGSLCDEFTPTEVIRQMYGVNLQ
Sequence of CYP1A2 (P05177 whole entry): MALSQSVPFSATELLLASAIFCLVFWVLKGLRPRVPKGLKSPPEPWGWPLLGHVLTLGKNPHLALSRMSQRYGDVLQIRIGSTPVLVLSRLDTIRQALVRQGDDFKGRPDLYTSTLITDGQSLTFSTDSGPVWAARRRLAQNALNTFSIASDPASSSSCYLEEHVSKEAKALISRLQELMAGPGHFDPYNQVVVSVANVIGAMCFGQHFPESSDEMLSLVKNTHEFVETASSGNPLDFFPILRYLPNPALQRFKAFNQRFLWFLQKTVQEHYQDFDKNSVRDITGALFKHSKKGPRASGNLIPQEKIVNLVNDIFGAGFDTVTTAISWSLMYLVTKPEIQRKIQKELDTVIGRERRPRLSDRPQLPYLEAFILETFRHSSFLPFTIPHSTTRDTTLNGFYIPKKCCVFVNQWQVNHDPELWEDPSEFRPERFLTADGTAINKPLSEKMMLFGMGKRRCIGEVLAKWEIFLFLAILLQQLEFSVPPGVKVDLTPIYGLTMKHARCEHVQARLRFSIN
Sequence of OATP1B3 (Q9NPD5 whole entry): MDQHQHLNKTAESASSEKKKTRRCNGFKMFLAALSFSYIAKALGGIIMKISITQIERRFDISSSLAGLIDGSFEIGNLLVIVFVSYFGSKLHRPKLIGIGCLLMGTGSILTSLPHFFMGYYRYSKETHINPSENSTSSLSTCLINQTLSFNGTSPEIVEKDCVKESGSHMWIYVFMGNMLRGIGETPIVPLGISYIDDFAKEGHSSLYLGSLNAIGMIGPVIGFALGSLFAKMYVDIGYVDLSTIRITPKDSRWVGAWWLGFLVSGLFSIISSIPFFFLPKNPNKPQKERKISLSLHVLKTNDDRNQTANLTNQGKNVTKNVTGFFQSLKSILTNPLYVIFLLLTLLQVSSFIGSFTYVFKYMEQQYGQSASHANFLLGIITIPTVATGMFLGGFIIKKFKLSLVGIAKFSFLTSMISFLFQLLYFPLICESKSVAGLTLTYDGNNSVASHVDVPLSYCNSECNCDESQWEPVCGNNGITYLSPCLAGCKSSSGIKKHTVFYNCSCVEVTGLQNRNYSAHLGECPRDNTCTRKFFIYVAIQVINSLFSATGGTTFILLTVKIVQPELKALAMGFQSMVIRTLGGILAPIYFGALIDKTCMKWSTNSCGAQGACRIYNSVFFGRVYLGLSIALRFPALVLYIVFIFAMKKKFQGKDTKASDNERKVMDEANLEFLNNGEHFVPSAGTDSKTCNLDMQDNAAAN
Sequence of CYP2C8 (P10632 whole entry): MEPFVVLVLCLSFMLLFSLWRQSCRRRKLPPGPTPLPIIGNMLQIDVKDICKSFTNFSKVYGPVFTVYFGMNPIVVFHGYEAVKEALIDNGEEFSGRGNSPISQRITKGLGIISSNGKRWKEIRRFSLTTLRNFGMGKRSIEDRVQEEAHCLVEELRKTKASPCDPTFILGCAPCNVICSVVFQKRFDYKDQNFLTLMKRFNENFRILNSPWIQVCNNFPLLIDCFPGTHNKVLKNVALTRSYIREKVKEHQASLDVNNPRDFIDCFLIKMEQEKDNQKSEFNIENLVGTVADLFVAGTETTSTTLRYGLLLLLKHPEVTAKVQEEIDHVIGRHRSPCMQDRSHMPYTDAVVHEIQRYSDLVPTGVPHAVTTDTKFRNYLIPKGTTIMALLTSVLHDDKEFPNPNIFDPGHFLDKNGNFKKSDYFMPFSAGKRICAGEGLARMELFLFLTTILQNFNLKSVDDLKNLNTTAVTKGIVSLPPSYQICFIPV
Sequence of BCRP (Q9UNQ0 whole entry): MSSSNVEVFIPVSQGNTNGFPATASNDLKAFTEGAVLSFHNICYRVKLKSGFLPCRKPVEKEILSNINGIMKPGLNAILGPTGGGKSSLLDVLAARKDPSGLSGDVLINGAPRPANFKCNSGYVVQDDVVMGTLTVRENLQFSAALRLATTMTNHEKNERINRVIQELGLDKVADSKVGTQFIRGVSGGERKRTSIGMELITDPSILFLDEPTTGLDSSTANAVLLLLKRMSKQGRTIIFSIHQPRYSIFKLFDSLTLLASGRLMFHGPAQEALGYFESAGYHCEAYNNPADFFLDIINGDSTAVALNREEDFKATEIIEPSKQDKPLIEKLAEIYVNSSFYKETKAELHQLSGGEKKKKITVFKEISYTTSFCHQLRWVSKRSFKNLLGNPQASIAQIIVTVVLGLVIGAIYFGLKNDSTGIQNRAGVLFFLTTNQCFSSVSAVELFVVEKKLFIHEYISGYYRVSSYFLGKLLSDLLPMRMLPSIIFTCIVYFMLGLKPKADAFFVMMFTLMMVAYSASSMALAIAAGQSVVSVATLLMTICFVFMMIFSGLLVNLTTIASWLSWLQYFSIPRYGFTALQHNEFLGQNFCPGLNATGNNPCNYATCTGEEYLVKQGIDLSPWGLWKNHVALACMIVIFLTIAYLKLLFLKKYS
Sequence of OATP1B1 (Q9Y6L6 whole entry): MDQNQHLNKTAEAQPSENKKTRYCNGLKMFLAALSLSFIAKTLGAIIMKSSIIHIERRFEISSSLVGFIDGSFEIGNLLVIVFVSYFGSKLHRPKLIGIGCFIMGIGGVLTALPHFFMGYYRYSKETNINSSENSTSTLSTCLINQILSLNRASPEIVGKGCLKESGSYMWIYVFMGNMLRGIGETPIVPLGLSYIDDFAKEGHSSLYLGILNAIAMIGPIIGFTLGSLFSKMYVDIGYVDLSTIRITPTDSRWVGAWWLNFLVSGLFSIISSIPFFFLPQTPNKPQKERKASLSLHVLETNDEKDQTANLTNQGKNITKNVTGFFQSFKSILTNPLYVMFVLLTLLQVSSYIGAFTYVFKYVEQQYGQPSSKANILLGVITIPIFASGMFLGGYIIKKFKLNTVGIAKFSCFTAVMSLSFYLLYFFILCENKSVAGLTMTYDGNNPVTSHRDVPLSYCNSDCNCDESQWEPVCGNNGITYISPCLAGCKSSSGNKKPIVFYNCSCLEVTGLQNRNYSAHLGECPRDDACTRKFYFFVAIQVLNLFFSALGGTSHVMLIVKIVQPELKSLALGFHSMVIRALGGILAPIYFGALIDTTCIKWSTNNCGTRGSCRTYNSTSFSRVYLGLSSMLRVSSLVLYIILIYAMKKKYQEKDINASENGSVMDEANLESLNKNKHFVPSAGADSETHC
Sequence of OCT1 (O15245 whole entry): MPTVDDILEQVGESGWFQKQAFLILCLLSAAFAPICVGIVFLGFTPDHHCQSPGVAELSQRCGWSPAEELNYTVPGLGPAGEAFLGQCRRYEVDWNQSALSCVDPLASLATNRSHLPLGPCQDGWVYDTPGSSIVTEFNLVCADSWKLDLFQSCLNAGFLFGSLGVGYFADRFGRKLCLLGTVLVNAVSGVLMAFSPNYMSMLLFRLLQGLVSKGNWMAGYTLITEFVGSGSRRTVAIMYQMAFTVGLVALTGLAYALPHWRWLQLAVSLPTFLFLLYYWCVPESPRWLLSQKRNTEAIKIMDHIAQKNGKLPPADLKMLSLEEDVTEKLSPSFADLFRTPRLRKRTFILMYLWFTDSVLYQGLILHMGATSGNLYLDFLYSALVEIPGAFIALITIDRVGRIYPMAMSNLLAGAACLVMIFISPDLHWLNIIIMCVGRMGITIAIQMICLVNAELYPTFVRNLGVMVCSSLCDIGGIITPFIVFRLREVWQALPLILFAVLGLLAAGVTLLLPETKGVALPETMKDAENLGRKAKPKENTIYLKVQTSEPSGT
Sequence of IBV-CoV-2 3CLpro (P0C6Y1 2780-3086): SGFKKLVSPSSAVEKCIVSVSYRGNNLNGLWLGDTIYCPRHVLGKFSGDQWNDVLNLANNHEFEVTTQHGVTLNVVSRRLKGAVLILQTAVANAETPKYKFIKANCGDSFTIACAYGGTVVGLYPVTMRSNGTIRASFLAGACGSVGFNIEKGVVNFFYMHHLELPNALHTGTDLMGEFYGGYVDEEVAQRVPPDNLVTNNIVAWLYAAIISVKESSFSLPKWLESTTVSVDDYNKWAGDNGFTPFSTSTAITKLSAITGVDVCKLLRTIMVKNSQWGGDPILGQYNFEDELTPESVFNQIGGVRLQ
Sequence of Human Caspase 2 (P42575 348-452): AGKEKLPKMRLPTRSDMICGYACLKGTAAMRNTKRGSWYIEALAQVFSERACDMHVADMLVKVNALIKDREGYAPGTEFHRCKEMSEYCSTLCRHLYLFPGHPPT
Sequence of Human Caspase 2 (P42575 170-325): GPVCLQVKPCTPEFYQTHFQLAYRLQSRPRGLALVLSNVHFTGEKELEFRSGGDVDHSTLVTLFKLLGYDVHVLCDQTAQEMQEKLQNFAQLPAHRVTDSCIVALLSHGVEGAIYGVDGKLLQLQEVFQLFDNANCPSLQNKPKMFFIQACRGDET

SMILES: COc1cccc2[nH]c(C(=O)N[C@@H](CC(C)C)C(=O)N[C@@H](C[C@@H]3CCNC3=O)C(=O)CO)cc12 [parent compound, N-((1S)-1-{[((1S)-3-hydroxy-2-oxo-1-{[(3S)-2-oxopyrrolidin-3-yl]methyl}propyl)amino]carbonyl}-3-methylbutyl)-4-methoxy-1H-indole-2-carboxamide]
- EC90 [1]: < 0.5 µM
- EC90 [2]: 0.4 µM
- EC50 [2, 42]: 0.144 µM
- EC90 [2, 42]: 0.398 µM
- Ki [3]: 0.0001 ± 0.0001 µM
- Ki [4]: 0.03 ± 0.08 nM
- Ki [5]: 0.0008 ± 0.0006 µM
- Ki [6]: 0.004 ± 0.0004 µM
- IC50 [7]: 6.12 µM
- margin of human cathepsin B activity compared to 3CLpro [7]: 1000 fold
- IC50 [8]: > 100 µM
- IC50 [9]: > 100 µM
- IC50 [10]: > 33.3 µM
- IC50 [11]: > 11.1 µM
- IC50 [12]: > 11.1 µM
- melting temperature (Tm) of SARS-CoV-2 3CLpro with compound bound [13]: 70.5+/−0.12 °C
- EC90 ([14]; in the presence of the P-gp inhibitor): 0.48 µM
- EC50 ([14]; read-out: EC50 μM GeoMean (95% CI)): 0.23 µM
- IC50 [15]: > 20 µM
- IC50 [16]: > 20 µM
- IC50 [17]: > 20 µM
- IC50 [18]: > 20 µM
- IC50 [19]: > 20 µM
- IC50 [20]: > 20 µM
- IC50 [21]: > 20 µM
- IC50 [22]: > 20 µM
- Ki [23]: 0.0012 ± 0.0009 µM
- CC50 ([24]; efflux inhibitor 0): > 100 µM
- CC50 ([24]; efflux inhibitor 0.5 μM): > 100 µM
- CC50 ([24]; efflux inhibitor 2 μM): > 100 µM
- CC50 ([25]; efflux inhibitor 0): > 100 µM
- CC50 ([25]; efflux inhibitor 0.5 μM): > 100 µM
- CC50 ([25]; efflux inhibitor 2 μM): > 50 µM
- unbound CIint [26]: 14 µL/min/mg
- CYP involved in the metabolism [27]: major CYP involved in the metabolism
- time dependent inhibition of CYP3A4/5 [28]: weak signal
- SFLogD7.4 [29]: 1.7
- micronuclei formation [30]: did not induce micronuclei formation
- secondary (off-target) pharmacology [31]: minimal potential
- compound-related findings [32]: minimal, non-adverse effects on clinical chemistry parameters
- tolerated dose, highest feasible dose tested [32]: 246 mg/kg/day
- bioavailability [33]: < 2%
- CC50 [34]: > 10 µM
- IC50 [35]: > 200 µM
- P-gp substrate status [36]: known substrate
- IC50 [37]: > 200 µM
- IC50 [38]: > 200 µM
- IC50 [39]: > 200 µM
- IC50 [40]: > 200 µM
- IC50 [41]: > 200 µM
